According to a melting point compilation (Tetko et al.; mined from patent text by program, amines drawn as free bases though some values may be those of a salt):

Row | Structure (SMILES) | melting point [°C]
1 | O=c1c2c(F)cccc2nc(CSc2ncnc3[nH]cnc23)n1-c1ccccc1Cl | 223 to 224
2 | Cc1ccc(C)c(OCc2ccccc2/C(=N\O)C(N)=O)c1 | 166 to 168
3 | CCOC(=S)SCc1cc(OC)nc(N)n1 | 91 to 93
4 | OCCNC(=S)NC(=Nc1ccccc1)c1ccccc1 | 144 to 145
5 | CC(=O)OCCn1cnc2c(Cl)nc(Nc3ccccc3)nc21 | 193 to 194
6 | O=c1oc2c(c(O)c1C(c1ccccc1)C1CC1)CCC2 (centres undefined) | 183 to 185
7 | CCc1cccc(CC)c1NC(=O)NCC1(c2ccccc2)CC1 | 166 to 168
8 | COc1ccc2c(c1)c(Cc1nc(-c3cccc([N+](=O)[O-])c3)cs1)c(C)n2C(=O)c1ccc(Cl)cc1 | 162 to 164
9 | CC(C)OCCNS(=O)(=O)NC(=O)OCc1ccccc1 | 88 to 89
10 | COc1cc(Br)c(Br)cc1N1CCN(CCCNc2c(C)c(=O)n(C)c(=O)n2C)CC1 | 153 to 155
11 | CCCCOC(CCN)(c1ccccc1)c1ccccc1 | 50 to 54
12 | CCCCCCCCCCCCCCCCCCCCCCOS(=O)(=O)c1ccc(Cl)cc1 | 74 to 75
13 | Cc1cc(C(N)=S)c2c(c1C)C(=O)CC2 | 207 to 208
14 | CCNS(=O)(=O)Nc1ccc(C(O)(C(F)(F)F)C(F)(F)F)cc1 | 178 to 179
15 | Cc1c(Nc2c(C#N)cncc2-c2nccs2)ccc2[nH]ccc12 | 245 to 247
16 | CCN1CCC2(CC1)COc1cc3c(cc12)N(C(=O)c1ccc(-c2ccc(-c4noc(C)n4)cc2C)cc1)CC3 | 202 to 204
17 | NNP(=S)(NN)Oc1ccccc1 | 94 to 95
18 | CCn1c(=O)c(-c2ccsc2)cc2cnc(Nc3ccccc3)nc21 | 223 to 225
19 | CC1CCC(c2ccc(Cl)c(C(F)(F)F)c2)=NN1S(=O)(=O)c1ccc(I)cc1 (centres undefined) | 157 to 158
20 | Cc1nnc2n1-c1ccc(C(=O)O)cc1C(c1ccccc1Cl)=NC2 | 169 to 173
21 | COc1ccc(C(=O)N(C(=O)c2ccc(OC)cc2)c2nc3ccc(N4CCN(C)CC4)cc3c(NCc3ccccc3)c2C#N)cc1 | 176
22 | CC(C)(C)NS(=O)(=O)c1ccc2c(c1)C=C(C(=O)O)C(C(F)(F)F)O2 (centres undefined) | 229 to 234
23 | CC(N)C(=O)N(CCC(=O)O)C1Cc2ccccc2C1 (centres undefined) | 205 to 206
24 | Oc1cc2c3c(sc2c(Cl)c1Cl)CCCC3 | 103 to 105
25 | COc1ccc(C(=O)Nc2cc(NC(=O)c3cccc(N)c3)ccc2C)cc1OC | 179 to 180
26 | CS(=O)(=O)N=C(Oc1ccccc1)Oc1ccccc1 | 124 to 126

Row | Structure (SMILES) | melting point [°C]
27 | CC(=O)c1ccc(S(=O)(=O)Nc2nccs2)cc1 | 194 to 195
28 | Cc1ccc(-c2c(NS(=O)(=O)c3ccc(C(C)(C)C)cc3)ncnc2OCCOc2ccc(NC(=O)c3ccccc3)cn2)cc1 | 173 to 174
29 | C#CCS(=O)c1c(O)cc(C)oc1=O (centres undefined) | 134
30 | CC(=O)NCCC1CCc2ccc3ocnc3c21 (centres undefined) | 89 to 92
31 | CC(C)(C)OC(=O)NNC(=S)Nc1ccc(F)cc1 | 158 to 160
32 | Cc1sc(-c2ccccc2)nc1COc1ccc(Cn2cc(CCC(=O)O)c(-c3ccccc3)c2)cc1 | 157 to 158
33 | CCOCc1cc2cc(Cl)ccc2oc1=Nc1ccc(Cl)cc1 | 126 to 128
34 | O=S(CC(O)CCl)c1ncc(Cl)cn1 (centres undefined) | 170
35 | Cn1c2ccccc2c(=NN=C2NCCS2)c2c(Cl)cccc21 | 206 to 207
36 | CSc1ncnn1C[C@]1(c2ccc(F)c(F)c2)O[C@@H]1c1ccccc1Cl (relative stereo) | 79 to 81
37 | CCOC(=O)c1[nH]c2cc3c(sc4ccccc43)c(C)c2c1C | 191 to 193
38 | COc1cccc(C(=O)N2CCc3cc(O)c(OC)cc3C2)c1 | 141 to 142
39 | COc1cncnc1N1CCN(CCCc2c[nH]c3ccc(Nc4c(OC(C)C)c(=O)c4=O)cc23)CC1 | 140 to 143
40 | CCNC(=O)c1ccc(-n2nnc(C(=O)NC3CC3)c2CNCc2ccccc2)cc1 | 153
41 | CCOC(=O)C=CC(=O)c1ccc(Oc2ccc(Cl)c(Cl)c2)cc1 | 115 to 117
42 | S=C(Nc1ccccc1)N1CCc2[nH]cnc2C1 | 205
43 | COC(=O)C=Cc1ccc(C)s1 | 59 to 60
44 | NC(=O)CCCCCc1cccnc1 | 64 to 65
45 | O=C(CSc1ccccc1)Nc1c(Cl)ccc2nc(N3CC[C@@H](O)C3)ccc12 | 246 to 249
46 | CC(=O)NCCN1CCc2ccc3c(c21)CCCO3 | 91 to 93
47 | O=C1C(=O)c2ccc(Cl)cc2C2=C1SCC1(CCN(C(=O)c3cccc(Cl)c3)CC1)O2 | 125 to 130
48 | O=C(Nc1cn(C2CCCCO2)nc1C(=O)NCC(O)Cc1ccccc1)c1ccccn1 (centres undefined) | 132 to 134
49 | CC1(C)c2ccccc2Oc2ncccc21 | 72 to 73
50 | NN(Cc1ccccc1[N+](=O)[O-])c1ccc(Cl)cc1 | 105 to 106
51 | Nc1ccc(C23CC(C2)C(=O)N(CC2CCCCC2)C3=O)cc1 | 140 to 146
52 | CCCCC1CC(=O)C2(C)CCC3=C4CCC(=O)C=C4CCC3C12 (centres undefined) | 159 to 161

Row | Structure (SMILES) | melting point [°C]
53 | CN(C)C(=S)SC(C[N+](=O)[O-])c1ccco1 (centres undefined) | 67 to 68
54 | OC(COc1cccc(-c2cc[nH]n2)c1)CN1CCN(c2ccc(Cl)cc2)CC1 (centres undefined) | 152 to 153
55 | COc1cc(C[C@H]2NC(=O)CN(Cc3ccccc3)C2=O)ccc1C | 205 to 209
56 | CCNc1nc(Cl)cc(NS(=O)(=O)c2ccc(N)cc2)n1 | 172 to 173
57 | CC(=O)Nc1cccc2c1NC(=O)C2c1ccccc1 (centres undefined) | 258 to 262
58 | CC(C)c1nc(CO)n(Cc2ccccc2)c1Sc1cc(Cl)cc(Cl)c1 | 121 to 124
59 | CCCc1nc2c(N)nc3cccnc3c2n1CCCCN(OC)C(=O)c1ccccc1 | 125 to 127
60 | CCOC(=O)c1ncc2[nH]c3ccc(I)cc3c2c1COC | 204 to 206
61 | Cc1nnc(SCCCC(=O)NC/C=C\COc2cc(CN3CCCCC3)ccn2)s1 | 65 to 68
62 | COC(=O)c1cc(-c2ccc(F)c(C)c2)nn(CC=Cc2ccc(Cl)cc2)c1=O | 138 to 139
63 | CCC(CC)(NCCCn1cnc(CO)c1)c1ccccc1 | 82 to 84
64 | Cn1ncc2c(=O)n3c(nc21)SC(c1ccccc1)C3 (centres undefined) | 191
65 | COc1ccccc1-n1ccc(=N)cc1 | 121 to 124
66 | Cc1nc2c(N)nc3ccccc3c2n1CCCNC(=O)C(C)C | 239 to 240
67 | CCCCCCCCCCCCCCOc1ccc(CC(CO)CC2(C)OCCO2)cc1 (centres undefined) | 28 to 29
68 | Cc1cncc(C)c1-c1c(C)cc(N)cc1C | 134 to 135
69 | CCOC(=O)c1ncn2c1[C@@H]1CCCN1C(=O)c1c-2ccc(F)c1F | 199 to 200
70 | O=C1CCCC(=NNc2ccccc2)C1 | 187 to 189
71 | CCOC(=O)c1cn(C(C)c2c(F)cccc2F)nn1 (centres undefined) | 118 to 121
72 | COc1cc(OC)nc(NC(=O)NS(=O)(=O)c2ccccc2C(C)=O)n1 | 126 to 128
73 | CCCCCCCCCCCCCCOc1ccc(CN(C(=O)NC)c2cccc(CBr)c2)cc1 | 70 to 73
74 | COc1ccc(C(=O)C#CCO)c(OC)c1OC | 82 to 83
75 | CC1(C)[C@@H](C=C(Cl)c2ccc(Cl)cc2)[C@@H]1C(=O)O (relative stereo) | 103 to 106
76 | CCCCCC(Oc1ccc(C2=CCCCC2)cc1)C(=O)NC(C)C (centres undefined) | 86 to 88
77 | C=CC(=O)Oc1ccc(Cl)c2c(N(C)C)ncnc12 | 95 to 100
78 | Cn1c(=O)cc(-c2cccc(Cl)c2)c2cc(C(=O)c3ccc(Cl)cc3)ccc21 | 155

Row | Structure (SMILES) | melting point [°C]
79 | CC(=O)OC1CSC(Oc2cc(C)c(Cl)cc2-c2ccno2)C(OC(C)=O)C1OC(C)=O (centres undefined) | 203
80 | CCCCCCCCCCCCCCCCCCOC(=O)P(=O)(OC)OC | 41 to 42
81 | CS(=O)(=O)Nc1cc(NC(=O)CCl)ccc1Oc1ccccc1 | 126 to 128
82 | CCOC(=O)c1c(SCC)cc(C(F)(F)F)nc1C(F)(F)F | 36 to 37.5
83 | CCCCCC(=O)C=Cc1ccc(O)c(O)c1 | 130 to 131
84 | CCOC(=O)c1ccc2c(c1)nc(-c1c(Cl)cccc1Cl)n2C | 164 to 166
85 | CCOC(=O)c1csc(NC(=O)C(CC2CCCC2)c2ccc(NC(=O)c3cccnc3)cc2)n1 (centres undefined) | 222 to 223
86 | O=C(c1ccc(-n2ccnc2)cc1)N1CCN(S(=O)(=O)c2ccc3cc(Br)ccc3c2)CC1 | 207 to 209
87 | CSC(=NCCSCc1ccccn1)NC#N | 85 to 88
88 | COC(=C(C#N)C(=O)Nc1ccccc1)c1cccn1C | 121 to 122
89 | Cc1csc(CN(C)C(=O)C23CC4CC(CC(C4)C2)C3)c1 | 87 to 88
90 | COC[C@H](C1CC1)n1cc(Cl)nc(Nc2cc(C)c(OC)nc2C)c1=O | 99 to 100
91 | Cc1cccc(-c2n[nH]cc2-c2ccc(F)c(-c3ccc(C(C)(C)O)cn3)c2)n1 | 169 to 172
92 | CCc1oc2ccccc2c1C(=O)c1ccc(OC)cc1 | 81
93 | Cc1ccc(S(=O)(=O)N=CNCc2ccc(-c3csc(N=C(N)N)n3)o2)cc1 | 141 to 142
94 | N#Cc1ccc(-c2ccc(-c3cn4cc(C#N)ccc4n3)o2)cc1 | 298 to 300
95 | CCOC(=O)c1cn(Cc2ccccc2)nc1NC(=O)NC(C)(C)C | 130 to 131
96 | O=C(O)c1cc(NCc2ccc(F)cc2)ccc1O | > 210
97 | C=CCN1CCC2(c3cccc(O)c3)CCCC2C1 (centres undefined) | 106 to 108
98 | CNC(=O)c1cccc(NC(=O)Cc2ccc([N+](=O)[O-])cc2)c1 | 148 to 151
99 | CC(C)N(CCC(CCN1CCCCC1)(C(N)=O)c1ccccc1Cl)Cc1ccccc1 (centres undefined) | 104 to 111
100 | CC(C)(C)c1cc(SC2CC(=O)OC2=O)cc(C(C)(C)C)c1O (centres undefined) | 92 to 93
101 | N#Cc1cnn(-c2ccc(C=O)cc2)n1 | 148 to 150
102 | CC(C)(C)OC(=O)c1ncn2c1[C@@H]1CCCN1C(=O)c1c-2cccc1S(C)(=O)=O | 244
103 | CNC(=O)COC[C@@H]1CC(c2ccc(-c3ccc(N4C[C@H](Cn5ccnn5)OC4=O)cc3F)cn2)=NO1 | 153 to 156
104 | C=CC(=O)N1CCC(C(=O)O)CC1 | 109 to 110
